Legend:
androgenic receptor (AR) = assay: Western blotting of testosterone-induced AR expression in LNCaP cells; type: cell-based
Method: LNCaP cells were treated with testosterone propionate (TP) to induce androgenic receptor signaling, treated with Abeliophyllum distichum leaf hot water (D.W.), ethanol (EtOH), and hexane (Hexane) extracts, followed by confirming the efficacy of inhibiting the expression of an androgenic receptor (AR, SantaCruz), 5 alpha reductase (5AR2, ABCam), and prostate-specific antigen (PSA, SantaCruz) to compare the inhibitory effect on androgenic receptor signaling-related factors per Abeliophyllum distichum leaf extract LNCaP cells in LNCaP cells. The LNCaP cells (2×10^6) were seeded in 6-well plates, and treated with 100 nM testosterone propionate (TP, Tokyo Chemical Industry) and 100 μg/mL each of Abeliophyllum distichum leaf hot water (D.W.), ethanol (EtOH), and hexane (Hexane) extracts for 24 hours. […] After finishing the treatment of the cells, an androgenic receptor signaling-inhibitory effect was analyzed using western blotting. […] Bands were then detected using an Azure c300 imaging system (Azure Biosystems) by chemiluminescence with an HPR substrate (Advansta Inc., San Jose, CA, USA). Band intensities were quantified by setting the area of each sample using ImageJ software (NIH ver. 1.48, USA) and then setting the area of corresponding β-actin in the same manner as used above, and dividing the area of β-actin by the area of each sample. […]

5 alpha reductase (5AR2) = assay: Western blotting of testosterone-induced 5AR2 expression in LNCaP cells; type: cell-based
Method: (§3) The LNCaP cells (2×10^6) were seeded in 6-well plates, and treated with 100 nM testosterone propionate (TP, Tokyo Chemical Industry) and 100 μg/mL each of Abeliophyllum distichum leaf hot water (D.W.), ethanol (EtOH), and hexane (Hexane) extracts for 24 hours. Here, a group treated with 1 μg/mL finasteride (Fi), which is an androgen inhibiting drug, was used as a positive control. After finishing the treatment of the cells, an androgenic receptor signaling-inhibitory effect was analyzed using western blotting. First, the cells were lysed in a protein inhibitor cocktail (Sigma)-containing radioimmunoprecipitation assay (RIPA) buffer, and a protein concentration was estimated using a BCA assay, followed by electrophoresis in a 12% SDS polyacrylamide gel. The gel was then transferred to a membrane using Mini Trans-Blot cells (Bio rad). Subsequently, the membrane was treated with primary antibodies at 4° C. for 12 hours. […] Bands were then detected using an Azure c300 imaging system (Azure Biosystems) by chemiluminescence with an HPR substrate (Advansta Inc., San Jose, CA, USA). Band intensities were quantified by setting the area of each sample using ImageJ software (NIH ver. 1.48, USA) and then setting the area of corresponding β-actin in the same manner as used above, and dividing the area of β-actin by the area of each sample.

[1] = test system: prostate-specific antigen (PSA); assay: Western blotting of testosterone-induced PSA expression in LNCaP cells; type: cell-based; conditions: compared among IQ, Rutin, CA and IR
Method: as §3

PI3K [2] = assay: Western blotting of testosterone-induced PI3K expression in prostatic cells; type: cell-based; conditions: depending on the concentration of isoquercetin
PI3K [3] = assay: Western blotting of PI3K expression in testosterone-treated BPH-1 cells; type: cell-based; conditions: testosterone 100 nM, 25, 50 and 100 μM, 24 hours, concentration dependent
PCNA = assay: Western blotting of PCNA expression in testosterone-treated BPH-1 cells; type: cell-based; conditions: testosterone 100 nM, 25, 50 and 100 μM, 24 hours, concentration dependent
cyclin D1 = assay: Western blotting of cyclin D1 expression in testosterone-treated BPH-1 cells; type: cell-based; conditions: testosterone 100 nM, 25, 50 and 100 μM, 24 hours, concentration dependent
BPH animal models = assay: Prostate indexes in BPH animal model; type: in vivo, SD rats; conditions: 4 weeks
Method: All experiments were conducted in an aseptic environment. Three days after surgical recovery for the BPH-induced group (BPH), testosterone was dissolved in corn oil and then subcutaneously injected daily at 3 mg/kg, inducing BPH. For an Abeliophyllum distichum leaf ethanol extract-administered group (BPH+ADLE), an Abeliophyllum distichum leaf ethanol extract was dissolved in sterile distilled water and orally administered using a zonde at 100 mg/kg for 4 weeks. For a saw palmetto-administered group (BPH+Saw) as a positive control, saw palmetto was dissolved in sterile distilled water and orally administered at 100 mg/kg, and for a finasteride-administered group (BPH+Fi), finasteride was orally administered using a zonde at 1 mg/kg per day for 4 weeks. After the experiment, the rats were sacrificed using zoletil, blood samples were collected through heart puncture, and serum was then separated and stored at −80° C. The prostate was separated and weighed using RNAse-free surgical tools, and stored at −80° C., followed by western blotting.
Meanwhile, isoquercetin (IQ) administration was also performed in the same manner and using the same controls as described above, and for a low concentration-administered group (BPH+IQ1), IQ was dissolved in sterile distilled water and then orally administered at 1 mg/kg, and for a high concentration-administered group (BPH+IQ10), IQ was dissolved in sterile distilled water and then orally administered using a zonde at 10 mg/kg for 4 weeks.

5α-reductase 2 (5AR2) = assay: Western blotting of 5AR2 in prostate tissue of BPH animal model; type: in vivo, SD rats; conditions: oral 1 mg/kg or 10 mg/kg, 4 weeks; depending on intake concentration
Method: (§1) All experiments were conducted in an aseptic environment. Three days after surgical recovery for the BPH-induced group (BPH), testosterone was dissolved in corn oil and then subcutaneously injected daily at 3 mg/kg, inducing BPH. For an Abeliophyllum distichum leaf ethanol extract-administered group (BPH+ADLE), an Abeliophyllum distichum leaf ethanol extract was dissolved in sterile distilled water and orally administered using a zonde at 100 mg/kg for 4 weeks. […]
(§2) For animal experimental groups, protein expression of androgen signaling-related factors, 5α-reductase 2 (5AR2), steroid receptor coactivator 1 (SRC1), an estrogen receptor (ER), and a prostate-specific antigen (PSA), were analyzed. […] Subsequently, bands were then detected using an Azure c300 imaging system (Azure Biosystems) by chemiluminescence with an HPR substrate (Advanta Inc., San Jose, CA, USA). Band intensities were quantified by setting the area of each sample using ImageJ software (NIH ver. 1.48, USA) and then setting the area of corresponding β-actin in the same manner as used above, and dividing the area of β-actin by the area of each sample.

[4] = test system: steroid receptor coactivator 1 (SRC1); assay: Western blotting of SRC1 in prostate tissue of BPH animal model; type: in vivo, SD rats; conditions: oral 1 mg/kg or 10 mg/kg, 4 weeks; depending on intake concentration
Method: as §1, §2

AR = assay: Western blotting of AR in prostate tissue of BPH animal model; type: in vivo, SD rats; conditions: oral 1 mg/kg or 10 mg/kg, 4 weeks; depending on intake concentration
[5] = compared among IQ, Rutin, CA and IR
[6] = testosterone-induced, depending on the concentration of isoquercetin
[7] = oral 1 mg/kg or 10 mg/kg, compared to the BPH-induced model

Structure (SMILES): O=c1c(O[C@@H]2O[C@H](CO)[C@@H](O)[C@H](O)[C@H]2O)c(-c2ccc(O)c(O)c2)oc2cc(O)cc(O)c12 [isoquercetin, 3-(β-D-glucopyranosyloxy)-3′,4′,5,7-tetrahydroxyflavone]
- effect on testosterone-induced AR expression level among four functional ingredient candidates (androgenic receptor (AR); [5]): most excellent effect
- expression of AR (androgenic receptor (AR); [6]): significantly reduced
- effect on testosterone-induced 5AR2 expression level among four functional ingredient candidates (5 alpha reductase (5AR2); [5]): most excellent effect
- expression of 5AR2 (5 alpha reductase (5AR2); [6]): significantly reduced
- effect on testosterone-induced PSA expression level among four functional ingredient candidates [1]: most excellent effect
- expression of PI3K (PI3K [2]): significantly reduced
- PI3K expression (PI3K [3]): significantly reduced
- PCNA expression (PCNA): significantly reduced
- cyclin D1 expression (cyclin D1): significantly reduced
- prostate index (BPH animal models; oral 1 mg/kg and 10 mg/kg, depending on concentration): lowered
- prostate weight (BPH animal models; [7]): significantly reduced
- ratio of the prostate weight to a body weight (BPH animal models; [7]): significantly decreased
- expression level of 5AR2 in prostate tissue (5α-reductase 2 (5AR2)): reduced
- expression level of SRC-1 in prostate tissue [4]: reduced
- expression level of AR in prostate tissue (AR): reduced

From patent US20230310477A1, “PHARMACEUTICAL COMPOSITION COMPRISING ABELIOPHYLLUM DISTICHUM EXTRACT AS ACTIVE INGREDIENT FOR TREATING ANDROGEN RECEPTOR-RELATED DISEASE” (priority 2020, published 2023)
